According to ChEMBL document CHEMBL1129860, “Studies on penam sulfones III. Synthesis and -lactamase inhibitory activity of sodium (6R)-6-(-hydroxybenzyl)-2-methoxyiminomethyl-2-methylpenam-3-carboxylate 1,1-dioxide and sodium 2-acyl-2-methylpenam-3-carboxylate 1,1-dioxide” (1997):
One block for each molecule: values may come before it.

Assays:
[1] = test system: Klebsiella aerogenes; assay: In vitro minimal inhibitory concentration (MIC) of compound in combination with Ceftazidime (CAZ) showed synergic activity against Enterobacter aerogenes 41006; assay type: functional
[2] = test system: Citrobacter freundii; assay: In vitro minimal inhibitory concentration (MIC) of compound in combination with Ceftazidime (CAZ) showed synergic activity against Citrobacter freundii 44032; assay type: functional
[3] = test system: Proteus vulgaris; assay: In vitro minimal inhibitory concentration (MIC) of compound in combination with Ceftazidime (CAZ) showed synergic activity against Proteus vulgaris CT 106; assay type: functional
[4] = test system: Escherichia coli; assay: In vitro minimal inhibitory concentration (MIC) of compound in combination with Ceftazidime (CAZ) showed synergic activity against Escherichia coli TEM 3; assay type: functional
[5] = test system: Pseudomonas aeruginosa; assay: In vitro minimal inhibitory concentration (MIC) of compound in combination with Ceftazidime (CAZ) showed synergic activity against Pseudomonas aeruginosa 46220 (DR-2); assay type: functional
[6] = test system: Enterobacter cloacae; assay: In vitro minimal inhibitory concentration (MIC) of compound in combination with Ceftazidime (CAZ) showed synergic activity against Enterobacter cloacae S-65; assay type: functional
[7] = test system: Morganella morganii; assay: In vitro minimal inhibitory concentration (MIC) of compound in combination with Ceftazidime (CAZ) showed synergic activity against Morganella morganii 36030; assay type: functional
[8] = test system: Klebsiella pneumoniae; assay: In vitro minimal inhibitory concentration (MIC) of compound in combination with Ceftazidime (CAZ) showed synergic activity against Klebsiella pneumoniae CTX 1; assay type: functional
[9] = test system: Klebsiella aerogenes; assay: In vitro minimal inhibitory concentration (MIC) of compound in combination with Ceftazidime (CAZ) showed synergic activity against Enterobacter aerogenes S-97; assay type: functional
[10] = test system: Morganella morganii; assay: In vitro minimal inhibitory concentration (MIC) of compound in combination with Ceftazidime (CAZ) showed synergic activity against Morganella morganii 36014; assay type: functional
[11] = test system: Klebsiella aerogenes; assay: In vitro minimal inhibitory concentration (MIC) of compound in combination with Ceftazidime (CAZ) showed synergic activity against Enterobacter aerogenes 41004; assay type: functional
[12] = test system: Pseudomonas aeruginosa; assay: microbe, parasite or virus in culture
[13] = test system: Klebsiella aerogenes; assay: In vitro minimal inhibitory concentration (MIC) of compound in combination with Ceftazidime (CAZ) showed synergic activity against Enterobacter aerogenes 41003; assay type: functional
[14] = test system: Enterobacter cloacae; assay: In vitro minimal inhibitory concentration (MIC) of compound in combination with Ceftazidime (CAZ) showed synergic activity against Enterobacter cloacae S-11; assay type: functional
[15] = test system: Enterobacter cloacae; assay: In vitro minimal inhibitory concentration (MIC) of compound in combination with Ceftazidime (CAZ) showed synergic activity against Enterobacter cloacae P99; assay type: functional
[16] = test system: Enterobacter cloacae; assay: In vitro minimal inhibitory concentration (MIC) of compound in combination with Ceftazidime (CAZ) showed synergic activity against Enterobacter cloacae 40011; assay type: functional
[17] = test system: Escherichia coli; assay: In vitro minimal inhibitory concentration (MIC) of compound in combination with Ceftazidime (CAZ) showed synergic activity against Escherichia coli TEM 7; assay type: functional
[18] = test system: Pseudomonas aeruginosa; assay: microbe, parasite or virus in culture; remark: listed apart in the source
[19] = test system: Enterobacter cloacae; assay: In vitro minimal inhibitory concentration (MIC) of compound in combination with Ceftazidime (CAZ) showed synergic activity against Enterobacter cloacae E40002; assay type: functional
[20] = test system: Citrobacter freundii; assay: In vitro minimal inhibitory concentration (MIC) of compound in combination with Ceftazidime (CAZ) showed synergic activity against Citrobacter freundii CT 76; assay type: functional
[21] = test system: Pseudomonas aeruginosa; assay: microbe, parasite or virus in culture; remark: listed apart in the source
Description: In vitro minimal inhibitory concentration (MIC) of compound against Pseudomonas aeruginosa CT-122 in combination with Ceftazidime (CAZ)

[22] = test system: Pseudomonas aeruginosa; assay: microbe, parasite or virus in culture; remark: listed apart in the source
[23] = Morganella morganii, read-out: MIC

MIC [1]: 100 µg/mL
MIC [2]: 200 µg/mL
MIC [3]: 0.39 µg/mL
MIC [4]: ≤ 0.2 µg/mL
MIC [5]: 25 µg/mL
MIC [6]: < 0.25 µg/mL
MIC [7]: < 0.25 µg/mL
MIC [8]: 0.78 µg/mL
MIC [9]: 1 µg/mL
MIC [10]: <=0.2 ug ml-1
MIC [10, 23]: < 0.25 µg/mL
MIC [11]: 12.5 µg/mL
MIC [12]: 16 µg/mL
MIC [13]: 12.5 µg/mL
MIC [14]: < 0.25 µg/mL
MIC [15]: 12.5 µg/mL
MIC [16]: 3.13 µg/mL
MIC [17]: ≤ 0.2 µg/mL
MIC [18]: 32 µg/mL
MIC [19]: 200 µg/mL
MIC [20]: 50 µg/mL
SMILES: CC(C)(O/N=C(\C(=O)NC1C(=O)N2C(C(=O)[O-])=C(C[n+]3ccccc3)CSC12)c1csc(N)n1)C(=O)O.C[C@]1(Cn2ccnn2)[C@H](C(=O)[O-])N2C(=O)CC2S1(=O)=O.[Na+] (stereo not drawn)

SMILES: CC(C)(O/N=C(\C(=O)N[C@@H]1C(=O)N2C(C(=O)[O-])=C(C[n+]3ccccc3)CS[C@H]12)c1csc(N)n1)C(=O)O.CC1(C)[C@H](C(=O)[O-])N2C(=O)[C@@H]([C@@H](O)c3ccccc3)[C@H]2S1(=O)=O.[Na+]
MIC [21]: 32 µg/mL
MIC [6]: < 0.25 µg/mL
MIC [7]: < 0.25 µg/mL
MIC [22]: 16 µg/mL
MIC [9]: 2 µg/mL
MIC [10, 23]: < 0.25 µg/mL
MIC [14]: < 0.25 µg/mL
